Measurements published in publication PMC4946363 (Cancer Research and Treatment : Official Journal of Korean …, 2016).
Counter-ions that a name gives are not always drawn.

Legend:
[1] = tested on: CML; conditions: CML patients; cited from earlier work
[2] = tested on: myeloid blast crisis and lymphoid blast crisis; conditions: cited from earlier work
[3] = oral; cited from earlier work
[4] = Stability of imatinib in the LC-MS/MS bioanalytical method validation

Which Cytogenetic remission [1] does the source give for interferon-α [IFN-α] here?
Its Cytogenetic remission is 6%-20%.

For Cc1ccc(NC(=O)c2ccc(CN3CCN(C)CC3)cc2)cc1Nc1nccc(-c2cccnc2)n1 [imatinib mesylate], which “Response rate, lymphoid blast crisis” value ([2]; oral 300-1,000 mg/day, 14 out of 20 patients) is on record?
Its value is 70%.

What about the “Response rate, myeloid blast crisis” value ([2]; oral 300-1,000 mg/day, 21 out of 38 patients) of the same compound?
The value was 55%.

What about the “Complete hematologic response, myeloid blast crisis” value ([2]; oral 300-1,000 mg/day) of the same compound?
Its value is 19%.

What about the “Complete hematologic responses, lymphoid blast crisis” value ([2]; oral 300-1,000 mg/day) of the same compound?
Its value is 20%.

Which results are given for Cc1ccc(NC(=O)c2ccc(CN3CCN(C)CC3)cc2)cc1Nc1nccc(-c2cccnc2)n1 [imatinib]?
Time to attain peak plasma concentration (Cmax) [3]: 2 to 4 h; Duration of remission from the commencement of therapy ([2]; responding patients continued on imatinib treatment): 101 to 349 days; In-injector stability, % change, HQC ([4]; 2-8°C, ~77 hr, high quality control): –5.6%; In-injector stability, % change, LQC ([4]; 2-8°C, ~77 hr, low quality control): 4.6%; Freeze thaw stability, % change, HQC ([4]; 3 cycles, high quality control): –6.1%; Freeze thaw stability, % change, LQC ([4]; 3 cycles, low quality control): 2.2%; Long-term stability, accuracy, HQC ([4]; 70 days, high quality control): 97.4%; Long-term stability, accuracy, LQC ([4]; 70 days, low quality control): 95.7%; Long-term stability, accuracy, MQC ([4]; 70 days, medium quality control): 101.5%; Bench top stability, % change, HQC ([4]; room temperature, ~7 hr, high quality control): –7.2%; Bench top stability, % change, LQC ([4]; room temperature, ~7 hr, low quality control): 10.2%; Inter-patient CV, lnAUC0-24 (ln-transformed AUC0-24): 25.2%; Intra-patient CV, lnAUC0-24 (ln-transformed AUC0-24, test and reference together): 12.3%; Inter-patient CV, lnCmax (ln-transformed Cmax): 20.4%; Intra-patient CV, lnCmax (ln-transformed Cmax, test and reference together): 13.6%
